Laboratory results from patent publication US11384366B2, “Lentiviral vector capable of directly reflecting type I interferon response, preparation method thereof, and applications thereof” (Fantasia Biopharma (Zhejiang) Co. Ltd., priority 2016, dated 2022).

Key:
[1] = system: IRF3-BiLC; experiment: Effect of CHX on IRF3-BiLC in THP-1 (IRF3-BiLC) cells; assay type: cell-based, human; details: CHX 100 ng/mL for 10 h, with or without polydA:dT stimulation; normalized to untreated groups; FIG. 5
Experimental: (§1) THP-1-Dual and THP-1 (IRF3-BiLC) cells were plated at a concentration of 1000,000 cells per mL in a 24-well plate. 4 groups were arranged for THP-1-Dual and THP-1 cells respectively, resulting in a total of 8 groups. After 12 hours, for THP-1-Dual cells, two groups of cells were transfected with Lipo2000 and stimulated with […] of polydA:dT, and the other two groups were not treated. The same treatment was performed for THP-1 (IRF3-BiLC). 4 hours after transfection, for the 2 groups of THP-1-Dual cells that were transfected and stimulated with polydA:dT, CHX with a final concentration of 100 ng/mL was added into one group. For the 2 groups of THP-1-Dual cells that were not treated, CHX with a final concentration of 100 ng/mL was added into one group. The other two groups were not treated. The same treatment was performed for THP-1 (IRF3-BiLC).
(§2) After 10 h of CHX treatment, for THP-1-Dual cells, 40 μL of supernatant was taken respectively to detect the luciferase activity. For THP-1 (IRF3-BiLC), 80 μL of Renilla luciferase lysate (purchased from Promega, E2820) was used to lyse on ice for 10 min. […] 20 μL of Renilla luciferase substrate (purchased from Promega, E2820) was added into each well, and the luciferase activity was detected by a microplate reader (purchased from Bio-Tek, Synergy H1).
(§3) The detected values of luciferase were normalized with regard to the untreated groups.

[2] = system: ISRE-Luc; experiment: Effect of CHX on ISRE-Luc in THP-1-Dual cells; assay type: cell-based; details: CHX 100 ng/mL for 10 h, with or without polydA:dT stimulation; normalized to untreated groups; FIG. 6
Experimental: as §1, §2, §3

[3] = system: IRF5 dimers; experiment: IRF5 dimer luciferase signal in THP-1 (IRF5-BiLC) under different stimulations; assay type: cell-based, human; details: FIG. 2b
[4] = system: IRF3 dimers; experiment: IRF3 dimer luciferase signal in THP-1 (IRF3-BiLC) under different stimulations; assay type: cell-based, human; details: FIG. 2a
[5] = system: IRF7 dimers; experiment: IRF7 dimer luciferase signal in THP-1 (IRF7-BiLC) under different stimulations; assay type: cell-based, human; details: FIG. 2c

Compound	effect of CHX on IRF3-BiLC luciferase activity [1]	effect of CHX on ISRE-Luc luciferase activity [2]	signals of the IRF5 dimers (luciferase activity) [3]	signals of the IRF3 dimers (luciferase activity) [4]	signals of the IRF7 dimers (luciferase activity) [5]
C[C@@H]1C[C@@H]([C@H](O)CC2CC(=O)NC(=O)C2)C(=O)[C@@H](C)C1 [CHX]	capable of reflecting the intracellular type I interferon response reaction	affected significantly	–	–	–
TNFa	–	–	cannot cause the formation of the signals	cannot cause the formation of the signals	cannot cause the formation of the signals
IL-1B: stimulus used on the THP-1 BiLC reporter cell lines	–	–	cannot cause the formation of the signals	cannot cause the formation of the signals	cannot cause the formation of the signals
